# Measured values published in patent US10150758B2, “PRMT5 inhibitors and uses thereof” (Epizyme, Inc., priority 2012, dated 2018).
# Assays:
# [1] = tested on: symmetric di-methyl arginine in Z-138 cells; assay: Z-138 Methylation Assay (In Cell Western for symmetric di-methyl arginine and DNA content); assay type: cell-based; settings: Homo sapiens, 96 hours incubation, read-out: ICW EC50
# Description: [formula] [formula] Where top and bottom are the normally allowed to float, but may be fixed at 100 or 0 respectively in a 3-parameter fit. The Hill Coefficient normally allowed to float but may also be fixed at 1 in a 3-parameter fit. Y is the % inhibition and X is the compound concentration. Z-138 Methylation Assay
# Z-138 suspension cells were purchased from ATCC (American Type Culture Collection, Manassas, Va.). RPMI/Glutamax medium, penicillin-streptomycin, heat inactivated fetal bovine serum, and D-PBS were purchased from Life Technologies, Grand Island, N.Y., USA. Odyssey blocking buffer, 800CW goat anti-rabbit IgG (H+L) antibody, and Licor Odyssey infrared scanner were purchased from Licor Biosciences, Lincoln, Nebr., USA. Symmetric di-methyl arginine antibody was purchased from EMD Millipore, Billerica, Mass., USA. 16% Paraformaldehyde was purchased from Electron Microscopy Sciences, Hatfield, Pa., USA.
# Z-138 suspension cells were maintained in growth medium (RPMI 1640 supplemented with 10% v/v heat inactivated fetal bovine serum and 100 units/mL penicillin-streptomycin) and cultured at 37° C. under 5% CO2.
# Cell Treatment, in Cell Western (ICW) for Detection of Symmetric Di-Methyl Arginine and DNA Content.
# Z-138 cells were seeded in assay medium at a concentration of 50,000 cells per mL to a 384-well cell culture plate with 50 μL per well. Compound (100 nL) from 384 well source plates was added directly to 384 well cell plate. Plates were incubated at 37° C., 5% CO2 for 96 hours. After four days of incubation, 40 μL of cells from incubated plates were added to poly-D-lysine coated 384 well culture plates (BD Biosciences 356697). Plates were incubated at room temperature for 30 minutes then incubated at 37° C., 5% CO2 for 5 hours. After the incubation, 40 μL per well of 8% paraformaldehyde in PBS (16% paraformaldahyde was diluted to 8% in PBS) was added to each plate and incubated for 30 minutes. Plates were transferred to a Biotek 405 plate washer and washed 5 times with 100 μL per well of wash buffer (1×PBS with 0.1% Triton X-100 (v/v)). Next 30 μL per well of Odyssey blocking buffer were added to each plate and incubated 1 hour at room temperature. Blocking buffer was removed and 20 μL per well of primary antibody was added (symmetric di-methyl arginine diluted 1:100 in Odyssey buffer with 0.1% Tween 20 (v/v)) and plates were incubated overnight (16 hours) at 4° C. Plates were washed 5 times with 100 μL per well of wash buffer. Next 20 μL per well of secondary antibody was added (1:200 800CW goat anti-rabbit IgG (H+L) antibody, 1:1000 DRAQ5 (Biostatus limited) in Odyssey buffer with 0.1% Tween 20 (v/v)) and incubated for 1 hour at room temperature. The plates were washed 5 times with 100 μL per well wash buffer then 1 time with 100 μL per well of water. Plates were allowed to dry at room temperature then imaged on the Licor Odyssey machine which measures integrated intensity at 700 nm and 800 nm wavelengths. Both 700 and 800 channels were scanned.
# First, the ratio for each well was determined by:
# Each plate included fourteen control wells of DMSO only treatment (minimum inhibition) as well as fourteen control wells for maximum inhibition treated with 3 μM of a reference compound (Background wells). The average of the ratio values for each control type was calculated and used to determine the percent inhibition for each test well in the plate. Reference compound was serially diluted three-fold in DMSO for a total of nine test concentrations, beginning at 3 μM. Percent inhibition was determined and IC50 curves were generated using triplicate wells per concentration of compound.
# Z-138 cells = assay: Z-138 Proliferation Assay (Cell Titer Glo); assay type: cell-based; settings: Homo sapiens, 120 h, 5 days, top concentration 20 μM
# Description: [formula] Z-138 Proliferation Assay
# Z-138 suspension cells were purchased from ATCC (American Type Culture Collection, Manassas, Va.). RPMI/Glutamax medium, penicillin-streptomycin, heat inactivated fetal bovine serum were purchased from Life Technologies, Grand Island, N.Y., USA. V-bottom polypropylene 384-well plates were purchased from Greiner Bio-One, Monroe, N.C., USA. Cell culture 384-well white opaque plates were purchased from Perkin Elmer, Waltham, Mass., USA. Cell-Titer Glo® was purchased from Promega Corporation, Madison, Wis., USA. SpectraMax M5 plate reader was purchased from Molecular Devices LLC, Sunnyvale, Calif., USA.
# Z-138 suspension cells were maintained in growth medium (RPMI 1640 supplemented with 10% v/v heat inactivated fetal bovine serum and cultured at 37° C. under 5% CO2. Under assay conditions, cells were incubated in assay medium (RPMI 1640 supplemented with 10% v/v heat inactivated fetal bovine serum and 100 units/mL penicillin-streptomycin) at 37° C. under 5% CO2.
# For the assessment of the effect of compounds on the proliferation of the Z-138 cell line, exponentially growing cells were plated in 384-well white opaque plates at a density of 10,000 cells/ml in a final volume of 50 μl of assay medium. A compound source plate was prepared by performing triplicate nine-point 3-fold serial dilutions in DMSO, beginning at 10 mM (final top concentration of compound in the assay was 20 μM and the DMSO was 0.2%). A 100 nL aliquot from the compound stock plate was added to its respective well in the cell plate. […] After addition of compounds, assay plates were incubated for 5 days at 37° C., 5% CO2, relative humidity >90%. Cell viability was measured by quantitation of ATP present in the cell cultures, adding 35 μl of Cell Titer Glo® reagent to the cell plates. Luminescence was read in the SpectraMax M5 microplate reader. The concentration of compound inhibiting cell viability by 50% was determined using a 4-parametric fit of the normalized dose response curves.
SMILES,EC50 [1],EC50 (Z-138 cells)
"O=C1Cc2ccccc2N1CC(O)CN1CCc2ccccc2C1 (stereo not shown) [Compound 1, 1-(3-(3,4-dihydroisoquinolin-2(1H)-yl)-2-hydroxypropyl)indolin-2-one]",0.101 to 1 µM,> 20 µM
"O=C1CN(c2cccc3cccnc23)CCN1CC(O)CN1CCc2ccccc2C1 (stereo not shown) [Compound 4, 1-(3-(3,4-dihydroisoquinolin-2(1H)-yl)-2-hydroxypropyl)-4-(quinolin-8-yl)piperazin-2-one]",0.101 to 1 µM,1 to 10 µM
O=C1CN(c2cccc(F)c2)CCN1CC(O)CN1CCc2ccccc2C1 (stereo not shown) [Compound 6],0.101 to 1 µM,> 20 µM
"O=C1CN(c2ccc(Cl)cc2)CCN1CC(O)CN1CCc2ccccc2C1 (stereo not shown) [Compound 7, 4-(4-chlorophenyl)-1-(3-(3,4-dihydroisoquinolin-2(1H)-yl)-2-hydroxypropyl)piperazin-2-one]",0.101 to 1 µM,10 to 50 µM
"O=C1CN(c2cncc(N3CCOCC3)c2)CCN1CC(O)CN1CCc2ccccc2C1 (stereo not shown) [Compound 8, 1-(3-(3,4-dihydroisoquinolin-2(1H)-yl)-2-hydroxypropyl)-4-(5-morpholinopyridin-3-yl)piperazin-2-one]",0.101 to 1 µM,1 to 10 µM
O=C1CN(c2ccccc2Cl)CCN1CC(O)CN1CCc2ccccc2C1 (stereo not shown) [Compound 9],0.101 to 1 µM,10 to 50 µM
"O=C1CN(c2cccc(N3CCOCC3)c2)CCN1CC(O)CN1CCc2ccccc2C1 (stereo not shown) [Compound 12, 1-(3-(3,4-dihydroisoquinolin-2(1H)-yl)-2-hydroxypropyl)-4-(3-morpholinophenyl)piperazin-2-one]",< 0.1 µM,1 to 10 µM
"Cc1ccc(N2CCN(CC(O)CN3CCc4ccccc4C3)C(=O)C2)cc1 (stereo not shown) [Compound 15, 1-(3-(3,4-dihydroisoquinolin-2(1H)-yl)-2-hydroxypropyl)-4-(p-tolyl)piperazin-2-one]",0.101 to 1 µM,> 20 µM
"O=c1cc(Nc2ccccc2)ccn1C[C@H](O)CN1CCc2ccccc2C1 [Compound 19, (R)-1-(3-(3,4-dihydroisoquinolin-2(1H)-yl)-2-hydroxypropyl)-4-(phenylamino)pyridin-2(1H)-one]",0.101 to 1 µM,> 20 µM
CN(C)c1ccccc1N1CCN(C[C@H](O)CN2CCc3ccccc3C2)C(=O)C1 [Compound 29],0.101 to 1 µM,10 to 50 µM
"O=C1COc2ccccc2N1CC(O)CN1CCc2ccccc2C1 (stereo not shown) [Compound 31, 4-(3-(3,4-dihydroisoquinolin-2(1H)-yl)-2-hydroxypropyl)-2H-benzo[b][1,4]oxazin-3(4H)-one]",0.101 to 1 µM,> 20 µM
